Target: T1, PTP1B (Homo sapiens, UniProt P18031)
T1 construct: in order to express 1-321 amino acid region encoding enzyme active domain of PTP1B; made in house; host or cells: E. coli BL21 DE3 pLysS
T1 sequence (P18031 1-321): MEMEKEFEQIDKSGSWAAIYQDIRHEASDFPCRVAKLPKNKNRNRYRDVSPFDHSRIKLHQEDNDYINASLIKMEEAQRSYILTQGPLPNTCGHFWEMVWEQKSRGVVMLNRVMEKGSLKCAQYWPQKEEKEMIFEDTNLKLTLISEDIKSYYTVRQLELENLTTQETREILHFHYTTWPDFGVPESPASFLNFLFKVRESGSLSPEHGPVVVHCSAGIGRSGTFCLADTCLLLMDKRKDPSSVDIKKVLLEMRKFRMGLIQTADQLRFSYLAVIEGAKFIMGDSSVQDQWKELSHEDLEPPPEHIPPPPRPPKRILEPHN
Experiment: Measurement of PTP1B Inhibitory Activity (dephosphorylation of p-nitrophenylphosphate, absorbance at 405 nm)
Assay type: biochemical
Settings: PTP1B enzyme active domain (1-321 amino acid, 6 histidine residues at C-terminal), pNPP substrate, pH 6.5, 37° C. for 1 hour
Experimental: Based on the sequence of human PTP-1B registered in Genbank (M31724) database, primer 1 and primer 2 were synthesized, and PTP1B cDNA was amplified from human skeletal muscle cDNA library (Clonetech, Inc. HL5002a) according to PCR method using these primers. The cycle of reactions at 98° C. for 10 seconds, at 58° C. for 30 seconds and at 72° C. for 90 seconds was repeated 35 cycles. The PCR reaction product (1322 bp) was cloned to pT7 Blue-T vector (Novagen, Inc.) to identify the base sequence.
Human PTP 1B cDNA (1322 bp) (100 ng) was amplified with primer 3 and primer 4 in order to express 1-321 amino acid region encoding enzyme active domain of PTP1B. The PCR reaction product (976 bp) was cloned to pT7 Blue-T vector (Novagen, Inc.) to identify the base sequence.
The pT7 Blue-T vector-human PTP1B cDNA (976 bp) was cleaved with restriction enzymes NdeI and SalI (Takara Shuzo Co., Ltd.) and subjected to electrophoresis using 0.7% agarose gel, and a 969 bp fragment was excised and purified. The fragment was introduced into pET32a (+) vector (Novagen, Inc.) cleaved with restriction enzymes NdeI and XhoI (Takara Shuzo Co., Ltd.), to constitute a vector pET32a (+)-human PTP1B cDNA (969 bp), which expresses PTP1B (321 amino acid) with 6 histidine residues binded to a C-terminal thereof under a control of T7 lac promotor.
E.coli BL21 DE3 pLysS (Novagen, Inc.) was transformed with the pET32a (+)-human PTP 1B cDNA (969 bp) to give an ampicillin (50 μg/ml) resistant bacterium. This was shake cultured at 37° C. using 5L of 2xYT medium (ampicillin (50 μg/ml)). When OD600nm reached to 0.5, IPTG (Isopropyl b-D-Thiogalactoside) was added to the culture medium so as to be 1 mM in order to induce the expression of protein, and this medium was further cultured at 37° C. overnight. The bacterium was collected by centrifugation (8000 rpm, 10 minutes, 4° C.).
The bacterium was suspended in lysis buffer (50 ml) (20 mM Tris HCl (pH 8.0), 0.5 M NaCl, 1 mM PMSF, 5 mM benzamidine, Lysozyme 5 mg) and crushed by sonication. To the supernatant after centrifuging (12000 rpm, 10 minutes, 4° C.) was added imidazole so as to be 50 mM and the mixture was mixed with His Bind resin (Novagen, Inc.) binded with Ni ion (4° C., overnight). The mixture was washed with 200 ml of (20 mM Tris HCl (pH 8.0), 0.5 M NaCl, 1 mM PMSF, 5 mM benzamidine, 50 mM imidazole), eluted with (20 mM Tris HCl (pH 8.0), 0.5 M NaCl, 1 mM PMSF, 5 mM benzamidine, 400 mM imidazole) and concentrated by centrifugation using Ultrafree-15 Biomax-50 (MILLIPORE Corp.) (11 mg/ml, 4ml). The purified protein (PTP1B) was identified by Western blotting method using SDS-PAGE, coomassie Blue stain and anti-PTP1B antibody (UBI Inc.).
The PTP1B inhibitory activity of the test compound was evaluated by measuring the ability of the test compound to dephosphorylate p-nitrophenylphosphate (pNPP) (a change of the absorbance at 405 nm).
To a buffer for measurement of the activity (0.1 M sodium acetate (pH 6.5), 1 mM EDTA, 10 mM DTT) (10 ml) was added PTP1B enzyme solution (2 μl) and the mixture was added to each well of a 96-well microtiter plate (100 μl each). A solution of the test compound in DMSO (10 μl) and 2 mM pNPP/the buffer for measurement of the activity (90 μl) were then added to each well, and the absorbance at 405 nm was measured. After keeping at 37° C. for 1 hour, the absorbance was measured again to evaluate a change of the absorbance. Regarding the change of the absorbance in the absence of the test compound as 100%, the concentration of the compound necessary for 50% inhibition (IC50 value) was calculated.

SMILES	IC50 [µM]
O=C(O)/C=C/c1ccc(-c2cccn2-c2ccc(/C=C/C(=O)O)cc2)cc1 [Example 12, (E)-3-[4-(1-{4-[(E)-3-Hydroxy-3-oxo-1-propenyl]phenyl}-1H-pyrrol-2-yl)phenyl]-2-propenoic acid]	3.1
Cc1ccc(-c2ccc(O[C@H](Cc3ccccc3)C(=O)O)cc2)n1Cc1cccc(Oc2ccccc2)c1 [Example 54, (2R)-2-{4-[1-(3-phenoxybenzyl)-5-methyl-1H-pyrrol-2-yl]phenoxy}-3-phenylpropanoic acid]	0.31
CCCCCCCCCCCCn1c(C)ccc1-c1ccc(O[C@H](Cc2ccccc2)C(=O)O)cc1 [Example 56, (2R)-2-[4-(1-Dodecyl-5-methyl-1H-pyrrol-2-yl)phenoxy]-3-phenylpropanoic acid]	0.13
CCCCCCCCn1c(C)ccc1-c1ccc(O[C@H](Cc2ccccc2)C(=O)O)cc1 [Example 58, (2R)-2-[4-(5-Methyl-1-octyl-1H-pyrrol-2-yl)phenoxy]-3-phenylpropanoic acid]	0.34
CCCCCCCCCn1c(C)ccc1-c1ccc(O[C@H](Cc2ccccc2)C(=O)O)cc1 [Example 60, (2R)-2-[4-(5-Methyl-1-nonyl-1H-pyrrol-2-yl)phenoxy]-3-phenylpropanoic acid]	0.36
CCCCCCCCCCn1c(C)ccc1-c1ccc(O[C@H](Cc2ccccc2)C(=O)O)cc1 [Example 62, (2R)-2-[4-(1-Decyl-5-methyl-1H-pyrrol-2-yl)phenoxy]-3-phenylpropanoic acid]	0.21
CCCCCCCCCCCn1c(C)ccc1-c1ccc(O[C@H](Cc2ccccc2)C(=O)O)cc1 [Example 64, (2R)-2-[4-(5-Methyl-1-undecyl-1H-pyrrol-2-yl)phenoxy]-3-phenylpropanoic acid]	0.23
CCCCCCCCCCCCCn1c(C)ccc1-c1ccc(O[C@H](Cc2ccccc2)C(=O)O)cc1 [Example 66, (2R)-2-[4-(5-Methyl-1-tridecyl-1H-pyrrol-2-yl)phenoxy]-3-phenylpropanoic acid]	0.17
CCCCCCCCc1ccc(-n2c(C)ccc2-c2ccc(O[C@H](Cc3ccccc3)C(=O)O)cc2)cc1 [Example 94, Sodium (2R)-2-([4-[1-(4-octylphenyl)-5-methyl-1H-pyrrol-2-yl]phenyl]oxy)-3-phenylpropanoate]	0.09

System: not given
Experiment: not given
Settings: not given

SMILES	melting point [°C]
O=C(O)/C=C/c1ccc(-c2cccn2-c2ccc(/C=C/C(=O)O)cc2)cc1 [Example 12, (E)-3-[4-(1-{4-[(E)-3-Hydroxy-3-oxo-1-propenyl]phenyl}-1H-pyrrol-2-yl)phenyl]-2-propenoic acid]	> 300
CCCCCCCCCCNC(=O)c1cc(-c2ccc(O[C@H](Cc3ccccc3)C(=O)O)cc2)n(CCc2ccc(Br)cc2)c1C [Example 118, (2R)-2-{4-[1-(4-Bromophenethyl)-4-(decylaminocarbonyl)-5-methyl-1H-pyrrol-2-yl]phenoxy}-3-phenylpropanoic acid]	132 to 133
